Measured values from paper PMC10840383, “Clinical features, functional consequences, and rescue pharmacology of missense GRID1 and GRID2 human variants” (Human Molecular Genetics, 2023).
Residue numbers refer to the chain shown, from its start.

How the values were obtained:
Type in all cases: cell-based
[1] = molecular target: T1, GluD2-WT (Rattus norvegicus, UniProt Q63226); test: TEVC of constitutive current, Xenopus oocytes expressing GluD2-WT
T1 construct: expressed in transfected cells; host or cells: Xenopus laevis oocytes injected with cRNA
T1 sequence (Q63226 24-1007): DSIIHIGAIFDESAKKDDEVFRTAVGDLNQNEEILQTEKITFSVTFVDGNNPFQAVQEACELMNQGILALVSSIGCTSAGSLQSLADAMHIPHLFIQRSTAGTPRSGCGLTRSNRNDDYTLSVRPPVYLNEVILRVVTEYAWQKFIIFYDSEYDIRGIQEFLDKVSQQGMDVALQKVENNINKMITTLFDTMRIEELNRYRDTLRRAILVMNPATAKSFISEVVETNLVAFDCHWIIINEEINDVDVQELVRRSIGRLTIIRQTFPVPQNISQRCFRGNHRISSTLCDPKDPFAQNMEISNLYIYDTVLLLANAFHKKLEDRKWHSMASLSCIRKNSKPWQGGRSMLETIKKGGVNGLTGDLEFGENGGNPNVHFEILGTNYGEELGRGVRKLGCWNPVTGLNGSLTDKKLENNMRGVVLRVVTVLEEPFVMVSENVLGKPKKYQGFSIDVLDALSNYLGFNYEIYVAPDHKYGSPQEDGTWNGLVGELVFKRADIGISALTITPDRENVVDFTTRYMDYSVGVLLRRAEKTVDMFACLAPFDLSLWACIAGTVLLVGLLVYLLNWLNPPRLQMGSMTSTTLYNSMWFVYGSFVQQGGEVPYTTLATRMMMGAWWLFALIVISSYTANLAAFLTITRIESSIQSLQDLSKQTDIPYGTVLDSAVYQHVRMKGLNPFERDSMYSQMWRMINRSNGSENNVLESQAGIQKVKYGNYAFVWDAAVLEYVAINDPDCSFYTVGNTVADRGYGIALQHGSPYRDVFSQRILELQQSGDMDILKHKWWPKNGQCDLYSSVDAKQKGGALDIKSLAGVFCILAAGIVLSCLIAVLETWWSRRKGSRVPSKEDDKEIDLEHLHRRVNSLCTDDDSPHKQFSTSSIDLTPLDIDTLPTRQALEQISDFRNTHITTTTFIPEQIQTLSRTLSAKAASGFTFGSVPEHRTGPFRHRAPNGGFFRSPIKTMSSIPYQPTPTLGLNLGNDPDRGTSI

[2] = molecular target: T2, GluD1-R341Q (Homo sapiens, UniProt Q9ULK0, R341Q); test: TEVC of constitutive current, Xenopus oocytes expressing GluD1-R341Q
T2 construct: expressed in transfected cells; host or cells: Xenopus laevis oocytes injected with cRNA
T2 sequence (Q9ULK0 21-1009 R341Q): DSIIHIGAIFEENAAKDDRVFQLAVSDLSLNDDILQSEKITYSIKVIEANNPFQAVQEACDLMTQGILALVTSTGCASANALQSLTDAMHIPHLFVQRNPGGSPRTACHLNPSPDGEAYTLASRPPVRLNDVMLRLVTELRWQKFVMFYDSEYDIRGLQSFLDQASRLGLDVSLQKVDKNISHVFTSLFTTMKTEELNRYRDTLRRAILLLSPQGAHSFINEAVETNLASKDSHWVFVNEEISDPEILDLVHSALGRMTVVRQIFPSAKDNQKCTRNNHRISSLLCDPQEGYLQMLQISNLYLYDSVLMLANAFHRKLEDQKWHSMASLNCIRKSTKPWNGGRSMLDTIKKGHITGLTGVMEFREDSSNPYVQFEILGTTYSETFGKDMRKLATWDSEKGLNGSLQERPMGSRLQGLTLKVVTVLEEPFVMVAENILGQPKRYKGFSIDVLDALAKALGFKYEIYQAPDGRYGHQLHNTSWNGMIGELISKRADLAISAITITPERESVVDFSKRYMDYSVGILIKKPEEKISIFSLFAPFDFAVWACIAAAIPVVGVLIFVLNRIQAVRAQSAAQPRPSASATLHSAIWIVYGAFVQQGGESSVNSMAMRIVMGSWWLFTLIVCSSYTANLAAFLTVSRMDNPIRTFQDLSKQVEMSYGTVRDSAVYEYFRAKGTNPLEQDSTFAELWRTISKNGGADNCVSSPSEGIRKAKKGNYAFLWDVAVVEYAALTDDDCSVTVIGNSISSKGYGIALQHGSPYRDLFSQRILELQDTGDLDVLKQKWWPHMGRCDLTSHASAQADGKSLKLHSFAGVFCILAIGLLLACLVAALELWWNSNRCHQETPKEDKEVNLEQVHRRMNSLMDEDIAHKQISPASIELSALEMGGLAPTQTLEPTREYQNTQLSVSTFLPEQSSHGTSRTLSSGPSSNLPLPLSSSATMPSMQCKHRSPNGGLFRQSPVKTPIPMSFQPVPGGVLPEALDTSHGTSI

[3] = molecular target: T3, GluD1-T649I (Homo sapiens, UniProt Q9ULK0, T649I); test: TEVC of constitutive current, Xenopus oocytes expressing GluD1-T649I; conditions: positive = increase, negative = decrease of activity
T3 construct: expressed in transfected cells; host or cells: Xenopus laevis oocytes injected with cRNA
T3 sequence (Q9ULK0 21-1009 T649I): T2 sequence (Q9ULK0 21-1009 R341Q) with Q321R, T629I

[4] = 10 mM D-serine, positive = increase, negative = decrease of activity
[5] = 100 μM pentamidine, positive = increase, negative = decrease of activity

In the case of `N[C@H](CO)C(=O)O` [D-serine], the “Effect on difference current, in words” value ([1]; 10 mM D-serine) is reported as “minimal activity”, the “D-Serine effect (Baseline −10 mM D-Serine)” value (shortened to “D-Serine effect”) [1, 4] is reported as −3.6 ± 1.0 (14) nA and the “Effect on current, in words” value [2] is reported as “insensitive”. For the same compound, the “D-Serine effect” value [2, 4] was 7.2 ± 1.8 (6) nA and the “D-Serine effect” value ([3]; 10 mM D-serine) was 8.9 ± 1.2 (9) nA.

In the case of `N=C(N)c1ccc(OCCCCCOc2ccc(C(=N)N)cc2)cc1` [Pentamidine, pentamidine], the “Pentamidine effect (Baseline −100 μM Pentamidine)” value (shortened to “Pentamidine effect”) [1, 5] is reported as 3.6 ± 4.8 (14) nA, the “Pentamidine effect” value [2, 5] is reported as 64 ± 15 (6) nA and the “Pentamidine effect” value ([3]; 100 μM pentamidine) is reported as −45 ± 9.5 (9) nA.
